Blank lines part the entries; values can stand above or below the compound they belong to.
What was measured:
Bile salt export pump = Bile salt export pump (Homo sapiens, UniProt O95342); assay: Inhibition of human BSEP overexpressed in Sf9 cell membrane vesicles assessed as uptake of [3H]-taurocholate in presence of ATP measured after 15 to 20 mins by membrane vesicle transport assay; format: ADME, cell-based
[1] = target: ATP-binding cassette sub-family C member 2 (Homo sapiens, UniProt Q92887); assay: Inhibition of human MRP2 overexpressed in Sf9 cell membrane vesicles assessed as uptake of [3H]-estradiol-17beta-D-glucuronide in presence of ATP and GSH measured after 20 mins by membrane vesicle transport assay
[2] = target: ATP-binding cassette sub-family C member 3 (Homo sapiens, UniProt O15438); assay: Inhibition of human MRP3 overexpressed in Sf9 insect cell membrane vesicles assessed as uptake of [3H]-estradiol-17beta-D-glucuronide in presence of ATP and GSH measured after 10 mins by membrane vesicle transport assay; format: ADME, cell-based
[3] = target: T1, ATP-binding cassette sub-family C member 4 (Homo sapiens, UniProt O15439); assay: Inhibition of human MRP4 overexpressed in Sf9 cell membrane vesicles assessed as uptake of [3H]-estradiol-17beta-D-glucuronide in presence of ATP and GSH measured after 20 mins by membrane vesicle transport assay; format: ADME, cell-based
T1 sequence (O15439 whole entry): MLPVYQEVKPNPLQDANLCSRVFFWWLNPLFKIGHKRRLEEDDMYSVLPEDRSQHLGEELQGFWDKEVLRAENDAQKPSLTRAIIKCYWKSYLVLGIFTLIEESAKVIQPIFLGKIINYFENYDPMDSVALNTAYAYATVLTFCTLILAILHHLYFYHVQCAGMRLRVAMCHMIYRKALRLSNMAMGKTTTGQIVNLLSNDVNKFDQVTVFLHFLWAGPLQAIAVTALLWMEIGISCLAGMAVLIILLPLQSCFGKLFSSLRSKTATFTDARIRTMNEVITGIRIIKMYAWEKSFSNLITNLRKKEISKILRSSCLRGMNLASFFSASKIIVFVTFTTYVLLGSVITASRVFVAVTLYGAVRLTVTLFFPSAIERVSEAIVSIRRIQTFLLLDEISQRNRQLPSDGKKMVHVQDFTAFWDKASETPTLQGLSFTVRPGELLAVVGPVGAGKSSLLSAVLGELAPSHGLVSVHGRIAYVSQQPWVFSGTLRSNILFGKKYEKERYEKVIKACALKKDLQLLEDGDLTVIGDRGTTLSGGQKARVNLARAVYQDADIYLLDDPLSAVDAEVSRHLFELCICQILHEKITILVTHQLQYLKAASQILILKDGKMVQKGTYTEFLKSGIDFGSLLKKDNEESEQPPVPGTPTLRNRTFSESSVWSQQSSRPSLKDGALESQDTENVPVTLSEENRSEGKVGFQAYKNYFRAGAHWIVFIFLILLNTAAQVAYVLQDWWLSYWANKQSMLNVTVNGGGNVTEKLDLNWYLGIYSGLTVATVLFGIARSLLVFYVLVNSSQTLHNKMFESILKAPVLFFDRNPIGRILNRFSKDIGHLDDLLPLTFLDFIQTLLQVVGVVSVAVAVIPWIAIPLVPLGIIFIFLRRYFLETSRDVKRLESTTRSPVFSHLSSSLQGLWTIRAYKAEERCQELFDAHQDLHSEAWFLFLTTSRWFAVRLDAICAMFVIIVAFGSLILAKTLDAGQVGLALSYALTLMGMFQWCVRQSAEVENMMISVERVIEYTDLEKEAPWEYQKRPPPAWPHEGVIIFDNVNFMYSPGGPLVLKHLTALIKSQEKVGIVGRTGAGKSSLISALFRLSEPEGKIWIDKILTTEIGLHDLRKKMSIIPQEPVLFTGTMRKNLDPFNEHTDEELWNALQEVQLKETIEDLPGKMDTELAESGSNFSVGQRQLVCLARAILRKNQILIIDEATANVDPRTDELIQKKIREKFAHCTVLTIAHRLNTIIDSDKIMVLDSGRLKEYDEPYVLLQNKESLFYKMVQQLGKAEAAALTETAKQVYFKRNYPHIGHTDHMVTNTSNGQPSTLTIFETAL

[4] = AUC in human at 75 to 100 mg, po QID after 6 hrs; format: ADME, organism-based; details: in vivo
[5] = Drug concentration at steady state in human at 75 to 100 mg, po QID after 6 hrs; format: ADME, organism-based; details: in vivo, read-out: Css
[6] = Ratio of drug concentration at steady state in human at 75 to 100 mg, po QID after 6 hrs to IC50 for human BSEP overexpressed in Sf9 insect cells; format: ADME, organism-based; details: in vivo
[7] = Ratio of drug concentration at steady state in human at 75 to 100 mg, po QID after 6 hrs to IC50 for human MRP4 overexpressed in Sf9 insect cells; format: ADME, organism-based; details: in vivo
[8] = Drug concentration at steady state in human at 100 to 300 mg, po QD after 24 hrs; format: ADME, organism-based; details: in vivo, read-out: Css
[9] = Ratio of drug concentration at steady state in human at 100 to 300 mg, po QD after 24 hrs to IC50 for human BSEP overexpressed in Sf9 insect cells; format: ADME, organism-based; details: in vivo
[10] = Ratio of drug concentration at steady state in human at 100 to 300 mg, po QD after 24 hrs to IC50 for human MRP2 overexpressed in Sf9 insect cells; format: ADME, organism-based; details: in vivo
[11] = Ratio of drug concentration at steady state in human at 100 to 300 mg, po QD after 24 hrs to IC50 for human MRP3 overexpressed in Sf9 insect cells; format: ADME, organism-based; details: in vivo
[12] = AUC in human at 100 to 300 mg, po QD after 24 hrs; format: ADME, organism-based; details: in vivo
[13] = AUC in human at 400 to 1200 mg, po TID after 8 hrs; format: ADME, organism-based; details: in vivo
[14] = Drug concentration at steady state in human at 400 to 1200 mg, po TID after 8 hrs; format: ADME, organism-based; details: in vivo, read-out: Css
[15] = AUC in human at 400 to 600 mg, po QD after 24 hrs; format: ADME, organism-based; details: in vivo
[16] = Drug concentration at steady state in human at 400 to 600 mg, po QD after 24 hrs; format: ADME, organism-based; details: in vivo, read-out: Css
[17] = AUC in human at 150 to 300 mg, po QD after 24 hrs; format: ADME, organism-based; details: in vivo
[18] = Drug concentration at steady state in human at 150 to 300 mg, po QD after 24 hrs; format: ADME, organism-based; details: in vivo, read-out: Css
[19] = Ratio of drug concentration at steady state in human at 150 to 300 mg, po QD after 24 hrs to IC50 for human BSEP overexpressed in Sf9 insect cells; format: ADME, organism-based; details: in vivo
[20] = Ratio of drug concentration at steady state in human at 150 to 300 mg, po QD after 24 hrs to IC50 for human MRP3 overexpressed in Sf9 insect cells; format: ADME, organism-based; details: in vivo
[21] = Ratio of drug concentration at steady state in human at 150 to 300 mg, po QD after 24 hrs to IC50 for human MRP4 overexpressed in Sf9 insect cells; format: ADME, organism-based; details: in vivo
[22] = AUC in human at 400 mg, po BID for 5 to 10 days after 12 hrs; format: ADME, organism-based; parameters: dose 400 mg, time < 12 hr, route oral; details: in vivo
[23] = Drug concentration at steady state in human at 400 mg, po BID for 5 to 10 days after 12 hrs; format: ADME, organism-based; details: in vivo, read-out: Css
[24] = Ratio of drug concentration at steady state in human at 400 mg, po BID for 5 to 10 days after 12 hrs to IC50 for human BSEP overexpressed in Sf9 insect cells; format: ADME, organism-based; details: in vivo
[25] = Ratio of drug concentration at steady state in human at 400 mg, po BID for 5 to 10 days after 12 hrs to IC50 for human MRP4 overexpressed in Sf9 insect cells; format: ADME, organism-based; details: in vivo

Chain of ATP-binding cassette sub-family C member 2 (Q92887 whole entry): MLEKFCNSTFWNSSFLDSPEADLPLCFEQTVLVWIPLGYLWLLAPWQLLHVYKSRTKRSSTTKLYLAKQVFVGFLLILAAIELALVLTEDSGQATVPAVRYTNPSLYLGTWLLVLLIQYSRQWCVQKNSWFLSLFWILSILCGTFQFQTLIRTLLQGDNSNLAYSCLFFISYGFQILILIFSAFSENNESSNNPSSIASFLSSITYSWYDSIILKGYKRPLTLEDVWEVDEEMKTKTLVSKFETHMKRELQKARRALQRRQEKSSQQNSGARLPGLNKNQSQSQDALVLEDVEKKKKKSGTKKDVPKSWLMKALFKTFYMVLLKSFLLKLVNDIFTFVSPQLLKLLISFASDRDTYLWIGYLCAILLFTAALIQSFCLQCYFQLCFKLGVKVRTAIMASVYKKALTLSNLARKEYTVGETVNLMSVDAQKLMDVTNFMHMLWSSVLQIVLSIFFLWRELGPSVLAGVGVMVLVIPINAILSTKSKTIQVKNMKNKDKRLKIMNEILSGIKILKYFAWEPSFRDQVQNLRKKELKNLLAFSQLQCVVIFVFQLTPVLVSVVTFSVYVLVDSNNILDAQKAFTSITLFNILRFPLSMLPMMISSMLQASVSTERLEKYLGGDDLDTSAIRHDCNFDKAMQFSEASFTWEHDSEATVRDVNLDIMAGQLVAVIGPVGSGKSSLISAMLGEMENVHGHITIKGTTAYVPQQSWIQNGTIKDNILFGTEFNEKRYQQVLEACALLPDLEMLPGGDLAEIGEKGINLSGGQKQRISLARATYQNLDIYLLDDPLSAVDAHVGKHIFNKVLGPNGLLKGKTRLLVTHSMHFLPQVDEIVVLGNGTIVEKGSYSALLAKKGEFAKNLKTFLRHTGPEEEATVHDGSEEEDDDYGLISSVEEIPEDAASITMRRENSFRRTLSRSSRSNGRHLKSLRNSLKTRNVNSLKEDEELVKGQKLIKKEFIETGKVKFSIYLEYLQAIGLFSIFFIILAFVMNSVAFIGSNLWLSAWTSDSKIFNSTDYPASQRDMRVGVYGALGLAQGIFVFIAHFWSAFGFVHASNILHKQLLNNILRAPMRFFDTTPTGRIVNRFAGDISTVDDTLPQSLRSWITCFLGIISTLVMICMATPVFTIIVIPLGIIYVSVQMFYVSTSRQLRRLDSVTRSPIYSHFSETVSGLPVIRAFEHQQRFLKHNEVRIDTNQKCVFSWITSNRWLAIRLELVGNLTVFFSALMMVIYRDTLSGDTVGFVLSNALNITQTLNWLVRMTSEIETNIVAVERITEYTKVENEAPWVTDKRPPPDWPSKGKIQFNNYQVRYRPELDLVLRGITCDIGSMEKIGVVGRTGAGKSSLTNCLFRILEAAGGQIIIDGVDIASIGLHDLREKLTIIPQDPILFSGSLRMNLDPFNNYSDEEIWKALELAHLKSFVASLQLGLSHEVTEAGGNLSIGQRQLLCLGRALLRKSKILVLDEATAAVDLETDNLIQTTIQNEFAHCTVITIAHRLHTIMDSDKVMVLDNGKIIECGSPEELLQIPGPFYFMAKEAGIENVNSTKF
Chain of Bile salt export pump (O95342 whole entry): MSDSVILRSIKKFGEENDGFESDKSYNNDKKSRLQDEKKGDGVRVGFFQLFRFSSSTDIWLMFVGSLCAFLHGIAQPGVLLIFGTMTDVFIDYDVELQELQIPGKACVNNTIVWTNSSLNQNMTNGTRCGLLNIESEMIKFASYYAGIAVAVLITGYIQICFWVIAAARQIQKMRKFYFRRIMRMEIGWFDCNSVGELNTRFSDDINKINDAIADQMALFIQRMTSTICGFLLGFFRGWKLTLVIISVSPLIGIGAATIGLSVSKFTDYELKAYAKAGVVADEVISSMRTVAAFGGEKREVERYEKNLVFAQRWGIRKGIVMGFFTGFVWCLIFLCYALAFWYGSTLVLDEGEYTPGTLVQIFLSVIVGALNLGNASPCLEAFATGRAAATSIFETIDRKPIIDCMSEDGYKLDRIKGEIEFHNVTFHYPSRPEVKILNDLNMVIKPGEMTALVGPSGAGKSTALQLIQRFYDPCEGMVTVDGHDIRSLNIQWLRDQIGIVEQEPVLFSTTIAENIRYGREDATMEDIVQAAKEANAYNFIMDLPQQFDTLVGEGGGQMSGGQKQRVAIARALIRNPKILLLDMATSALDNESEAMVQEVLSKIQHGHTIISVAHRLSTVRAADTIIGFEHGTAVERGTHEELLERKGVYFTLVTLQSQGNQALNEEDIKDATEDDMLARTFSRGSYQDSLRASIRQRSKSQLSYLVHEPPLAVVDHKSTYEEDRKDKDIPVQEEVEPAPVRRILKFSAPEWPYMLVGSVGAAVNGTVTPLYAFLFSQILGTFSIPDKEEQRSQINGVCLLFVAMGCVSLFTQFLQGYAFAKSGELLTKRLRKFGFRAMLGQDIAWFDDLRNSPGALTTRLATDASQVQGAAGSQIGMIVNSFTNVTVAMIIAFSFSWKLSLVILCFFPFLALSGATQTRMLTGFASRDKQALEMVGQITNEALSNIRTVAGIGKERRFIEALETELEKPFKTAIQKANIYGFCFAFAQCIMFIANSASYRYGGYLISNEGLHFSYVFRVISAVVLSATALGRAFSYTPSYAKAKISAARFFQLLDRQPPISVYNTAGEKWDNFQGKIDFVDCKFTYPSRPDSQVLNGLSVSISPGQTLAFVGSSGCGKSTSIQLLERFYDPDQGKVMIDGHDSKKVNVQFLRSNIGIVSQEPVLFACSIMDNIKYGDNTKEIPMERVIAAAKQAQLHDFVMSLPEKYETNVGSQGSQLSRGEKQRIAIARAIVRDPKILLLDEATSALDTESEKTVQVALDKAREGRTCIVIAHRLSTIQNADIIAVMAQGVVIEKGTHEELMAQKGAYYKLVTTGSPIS
Chain of ATP-binding cassette sub-family C member 3 (O15438 whole entry): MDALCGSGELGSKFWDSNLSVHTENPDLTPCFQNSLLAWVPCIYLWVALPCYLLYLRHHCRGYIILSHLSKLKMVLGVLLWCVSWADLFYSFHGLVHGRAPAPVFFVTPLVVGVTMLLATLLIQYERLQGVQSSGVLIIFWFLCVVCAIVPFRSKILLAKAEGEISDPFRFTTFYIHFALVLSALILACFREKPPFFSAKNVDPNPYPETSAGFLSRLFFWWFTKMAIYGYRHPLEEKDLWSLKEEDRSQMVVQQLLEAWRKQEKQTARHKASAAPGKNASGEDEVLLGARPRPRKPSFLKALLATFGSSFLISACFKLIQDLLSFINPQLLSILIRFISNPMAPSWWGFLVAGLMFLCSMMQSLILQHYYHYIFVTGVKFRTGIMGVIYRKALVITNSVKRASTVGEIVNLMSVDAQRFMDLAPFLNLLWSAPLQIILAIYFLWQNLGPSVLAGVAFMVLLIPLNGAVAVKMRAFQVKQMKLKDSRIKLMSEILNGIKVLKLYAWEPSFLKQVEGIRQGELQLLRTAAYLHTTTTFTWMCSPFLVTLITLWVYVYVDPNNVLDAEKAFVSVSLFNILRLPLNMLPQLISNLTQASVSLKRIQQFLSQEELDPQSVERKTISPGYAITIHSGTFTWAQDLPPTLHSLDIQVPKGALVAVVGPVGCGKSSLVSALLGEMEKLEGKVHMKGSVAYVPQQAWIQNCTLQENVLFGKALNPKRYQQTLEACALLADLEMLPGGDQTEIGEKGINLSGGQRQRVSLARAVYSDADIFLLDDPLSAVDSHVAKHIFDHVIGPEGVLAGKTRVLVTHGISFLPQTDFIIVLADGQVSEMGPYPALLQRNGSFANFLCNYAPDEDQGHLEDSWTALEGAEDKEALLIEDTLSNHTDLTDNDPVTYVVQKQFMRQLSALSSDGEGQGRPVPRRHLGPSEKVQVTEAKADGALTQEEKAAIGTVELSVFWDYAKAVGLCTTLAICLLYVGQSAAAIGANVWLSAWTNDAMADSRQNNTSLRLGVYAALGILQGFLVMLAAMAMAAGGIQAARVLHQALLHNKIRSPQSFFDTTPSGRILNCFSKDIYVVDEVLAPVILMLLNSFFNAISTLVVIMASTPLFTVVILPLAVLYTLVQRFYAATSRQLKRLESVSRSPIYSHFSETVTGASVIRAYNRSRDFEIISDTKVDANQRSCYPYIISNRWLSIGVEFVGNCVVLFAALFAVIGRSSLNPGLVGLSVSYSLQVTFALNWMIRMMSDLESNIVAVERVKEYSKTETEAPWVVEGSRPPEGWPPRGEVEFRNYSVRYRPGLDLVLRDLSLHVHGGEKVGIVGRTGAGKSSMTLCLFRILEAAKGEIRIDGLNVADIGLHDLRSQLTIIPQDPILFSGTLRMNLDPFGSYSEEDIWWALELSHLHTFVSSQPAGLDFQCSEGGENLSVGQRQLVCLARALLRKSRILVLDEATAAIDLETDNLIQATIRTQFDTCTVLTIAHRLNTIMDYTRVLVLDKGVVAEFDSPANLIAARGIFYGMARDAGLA

Compound: Cc1cc2c(cc1CC(=O)c1sccc1S(=O)(=O)Nc1onc(C)c1Cl)OCO2 [SITAXENTAN]
- IC50 (Bile salt export pump): 12.6 µM
- IC50 [2]: 45.4 µM
- IC50 [3]: 28.4 µM
- concentration at 24 h [8]: 2000 nM
- Ratio [9]: 0.158
- Ratio [10]: 0.044
- Ratio [11]: 0.07
- AUC at 24 h [12]: 47.9 µM·h

Compound: CC(C)(C)NC(=O)[C@@H]1C[C@@H]2CCCC[C@@H]2CN1C[C@@H](O)[C@H](Cc1ccccc1)NC(=O)[C@H](CC(N)=O)NC(=O)c1ccc2ccccc2n1
- IC50 [1]: > 133 µM
- IC50 [2]: 42 µM
- IC50 [3]: 59 µM
- AUC at 8 h [13]: 9.69 µM·h
- concentration at 8 h [14]: 1210 nM

Compound: Cc1ccc(NC(=O)c2ccc(CN3CCN(C)CC3)cc2)cc1Nc1nccc(-c2cccnc2)n1 [IMATINIB]
- IC50 [1]: > 133 µM
- IC50 [2]: > 133 µM
- IC50 [3]: > 133 µM
- AUC at 24 h [15]: 106 µM·h
- concentration at 24 h [16]: 4410 nM

Compound: CCCCC1=NC2(CCCC2)C(=O)N1Cc1ccc(-c2ccccc2-c2nnn[nH]2)cc1 [IRBESARTAN]
- IC50 (Bile salt export pump): 7.31 µM
- IC50 [2]: 21.1 µM
- IC50 [3]: 83.2 µM
- AUC at 24 h [17]: 52.9 µM·h
- concentration at 24 h [18]: 2200 nM
- Ratio [19]: 0.301
- Ratio [20]: 0.104
- Ratio [21]: 0.026

Second part, led by results:

- IC50 [1]: > 133 µM
- IC50 [2]: > 133 µM
- IC50 [3]: 8.3 µM
- AUC at 6 h [4]: 6.82 µM·h
- concentration at 6 h [5]: 1140 nM
- Ratio [7]: 0.137
Compound: OCCN(CCO)c1nc(N2CCCCC2)c2nc(N(CCO)CCO)nc(N3CCCCC3)c2n1 [DIPYRIDAMOLE]
- IC50 (Bile salt export pump): 4 µM
- Ratio [6]: 0.303

- IC50 [1]: > 133 µM
- IC50 [2]: > 133 µM
- IC50 [3]: 7.1 µM
- AUC at 12 h [22]: 11.6 µM·h
- concentration at 12 h [23]: 964 nM
- Ratio [25]: 0.136
Compound: CC[C@H]1OC(=O)[C@H](C)C(=O)[C@H](C)[C@@H](O[C@@H]2O[C@H](C)C[C@H](N(C)C)[C@H]2O)[C@](C)(OC)C[C@@H](C)C(=O)[C@H](C)[C@H]2N(CCCCn3cnc(-c4cccnc4)c3)C(=O)O[C@]12C [TELITHROMYCIN]
- IC50 (Bile salt export pump): 5 µM
- Ratio [24]: 0.193

From ChEMBL document CHEMBL4028801, “A multifactorial approach to hepatobiliary transporter assessment enables improved therapeutic compound development” (Toxicol Sci, 2013)
